# Measured values from US8496913B2, “Compressed chewing gum tablet” (Gumlink A/S, priority 2005, dated 2013).
# Test system: plaque
# Conditions: in vivo
smiles,measurement,value
CC(=O)[O-].CC(=O)[O-].[Zn+2] [zinc acetate],effect on plaque in hard-to-reach places,with high efficiency
